Common to all, as to type: cell-based
Data set [1] has as its system mitochondrial chaperonin activity in PCa cells. Briefly: Mitochondrial Chaperonin Activity Assay (MiCAA). The settings on record: 24 h. On the procedure: FIG. 10. Mitochondrial Chaperonin Activity Assay (MiCAA). PCa cells were treated with either DCEM1 (A) or ETB or Mizoribine (B) for 24 h and mitochondrial (Mito) chaperonin activity was analyzed as described in material and methods. In another experiment, PCa cells were transfected with siRNA to target HSP60 mRNA and mitochondrial chaperonin activity was analyzed (C). In (A), the bars in each series from left to right are DMSO and DCEM1. In (B), the bars in each series from left to right are DMSO, ETB, and MZR. In (C), the bars in each series from left to right are siMock, siHSP60-1, and siHSP60-2.
Since HSP60 chaperonin system is crucial for maintaining mitochondrial homeostasis in normal cells, a novel method, Mitochondrial Chaperonin Activity Assay (MiCAA), was developed to analyze chaperonin activity in live cells using flow cytometry to evaluate whether DCEM1 modulates mitochondrial chaperonin activity.

The target in the next data set is T1, HSP60-ClpP interaction (Homo sapiens, UniProt P10809).
T1 construct: endogenous in cells
Briefly: HSP60-ClpP co-immunoprecipitation assay in PCa cells. Conditions: LNCaP and PC-3 cells, 24 hours. On the procedure: FIG. 6. Pharmacological inhibition of HSP60-ClpP interaction induces UPR^mt and PCa cell death. (A) Docking of DCEM1 into apical domain of HSP60. (B) LNCaP and PC-3 cells were treated with DCEM1 for 24 hours and HSP60-ClpP interaction was analyzed by co-immunoprecipitation assay. (C) LNCaP and PC-3 cells were treated with DCEM1 for 24 hours and mitoROS levels were analyzed by flow cytometry using mitoSOX dye. (D) LNCaP and PC-3 cells were treated with DCEM1 for 24 hours and poly-Ub protein levels were analyzed by western blotting. (E) LNCaP and PC-3 cells were treated with DCEM1 for 24 and 48 hours and apoptotic cell populations were analyzed by flow cytometry using Annexin V FITC/PI method as explained in materials and methods. In (E) top panel, the bars in each series from left to right are control, 5, 10, and 20, and in (E) bottom panel, the bars in each series from left to right are DMSO, 5, 10, and 20. (F) LNCaP and PC-3 cells were treated with DCEM1 for 24 and 48 hours and lysates were prepared and analyzed for DEVDase activity using specific peptide substrate. […] (G) LNCaP and PC-3 cells were pre-treated with SKQ1 followed by DCEM1 treatment and analyzed for cell viability by MTT assay. (H) LNCaP and PC-3 cells were treated with either DCEM1 or H2O2 (200 μM) for 24 hours and total DNA were isolated and analyzed for mtDNA damage as described in materials and methods. […]

The next data set concerns LNCaP and PC-3 cells. Briefly: Cellular ATP level. On the procedure: FIG. 7. Pharmacological inhibition of HSP60-ClpP interaction induces metabolic stress in PCa cells. (A) LNCaP and PC-3 cells were pre-treated with either rotenone or antimycin-A followed by DCEM1 treatment and mitochondrial ROS was analyzed as described in material and methods (data represented as fold change compared to control). In (A), the bars in each series from left to right are control, DCEM1, Rot+DCEM1, Anti A+DCEM1, Rot, and Anti A (B) ClpP protein was over-expressed in LNCaP and PC-3 cells followed by DCEM1 treatment and mitochondrial ROS was analyzed as described in material and methods (Data represented as fold change compared to control). […] (C) ClpP protein was over-expressed in LNCaP and PC-3 cells followed by DCEM1 treatment and level of poly-ubiquitinated protein was analyzed by western blotting. (D) ClpP protein was over-expressed in LNCaP and PC-3 cells followed by DCEM1 treatment and DEVDase activity was analyzed as described in material and methods (Data represented as fold change compared to control). […] (E) Mitochondrial membrane potential (mitoMP) was analyzed in LNCaP and PC-3 cells treated with DCEM1 as described in material and methods (Data represented as fold change compared to control). […] (F) ATP level was analyzed in LNCaP and PC-3 cells treated with DCEM1 as described in material and methods (Data represented as fold change compared to control). […]

A further data set concerns RWPE-1 cells. Briefly: Apoptosis in non-carcinoma RWPE-1 cells (Annexin V/PI labeling). The settings on record: 24 h and 48 h, doses 5, 10, 20. How it is done:
FIG. 9. Structure of DCEM1 is shown in (A). (B) Human prostate epithelial non carcinoma RWPE-1 cells were treated with DCEM1 at indicated doses for 24 h and 48 h and apoptotic cells were quantified by Annexin V/PI labeling as described in material and methods. In (B), the bars in each series from left to right are DMSO, 5, 10, and 20.
Identification of novel inhibitor of HSP60-ClpP interaction that disrupts UPR^mt function and induces PCa cell death. Having shown that two arms of UPR^mt, HSP60 chaperonin and ClpP protease interact and play critical role in PCa cell survival, an in silico analysis was performed and a small molecule library (developed by Enamine Ltd) was screened to identify drugs targeting the apical domain of HSP60 critical for its interaction with ClpP. 9 compounds (A-I) were identified and screened for their cell death inducing potential in PCa cells (data not shown). […] Colony forming ability of PCa cells was inhibited by DCEM1 treatment (data not shown).

For the next data set, the system named is PC-3 cells. Briefly: Oxygen consumption rate (OCR). Conditions: DCEM1 100 nM, 500 nM, 1 μM, 5 μM.

T1 sequence (P10809 27-573): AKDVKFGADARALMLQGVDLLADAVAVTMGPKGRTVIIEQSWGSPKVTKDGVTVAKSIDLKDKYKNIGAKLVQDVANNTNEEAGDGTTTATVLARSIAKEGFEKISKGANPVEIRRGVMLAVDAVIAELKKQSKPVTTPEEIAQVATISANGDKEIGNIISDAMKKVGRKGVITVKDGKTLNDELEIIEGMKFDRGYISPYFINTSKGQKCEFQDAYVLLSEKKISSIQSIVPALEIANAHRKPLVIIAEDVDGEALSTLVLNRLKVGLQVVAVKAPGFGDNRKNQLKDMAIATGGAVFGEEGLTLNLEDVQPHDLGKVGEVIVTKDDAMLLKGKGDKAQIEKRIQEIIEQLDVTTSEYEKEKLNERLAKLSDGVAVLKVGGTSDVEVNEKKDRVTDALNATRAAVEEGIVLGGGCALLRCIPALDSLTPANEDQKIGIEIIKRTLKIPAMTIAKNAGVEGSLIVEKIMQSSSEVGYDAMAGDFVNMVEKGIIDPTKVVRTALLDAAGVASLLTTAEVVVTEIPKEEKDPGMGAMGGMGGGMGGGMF

Turning to `CCOc1cc(CNCc2nc3ccccc3[nH]2)ccc1OCc1cccs1` [DCEM1], the mitochondrial chaperonin activity result in data set [1] is listed as “did not modulate”. Further, the “HSP60-ClpP interaction by co-immunoprecipitation” value on HSP60-ClpP interaction is recorded as “inhibited HSP60-ClpP interactions in a dose dependent manner”. The “cellular ATP” value in the data set on LNCaP and PC-3 cells is on record as “reduction of cellular ATP”. In addition, the “effect (cell death/apoptosis) on non-carcinoma prostate epithelial RWPE-1 cells” value with RWPE-1 cells is listed as “no effect”. Further, in the data set with PC-3 cells, the “oxygen consumption rate (OCR)” value was “reduction in oxygen consumption rate”.

(Values after patent publication US20240009174A1, “METHODS FOR DISRUPTING MITOCHONDRIAL UNFOLDED PROTEIN RESPONSE” (Health Research, Inc., priority 2020, published 2024).)
